{"source": "patent US20030039657A1", "about": "“Inducible vaccines” (priority 1999, published 2003)", "system": "humoral immune response against hAAT", "assay": "Anti-hAAT antibody (humoral immune response) in mouse serum by ELISA after gene-gun DNA inoculation", "format": "in vivo, balb/c mice", "method": "Five to 7-week-old female Balb/c mice were given 4 μg reporter (P4U-hAAT) and 200 ng effector (GS1158) of the mifepristone-inducible plasmid DNA divided into four shots. Mifepristone was given i.p. 20 weeks after DNA administration (Day 140, 142, 144). Blood samples were take from the tail vein at various time points and anti-hAAT levels were determined by ELISA. Values are mean +/−SD for three mice per group. The control is with no drug treatment.\nSpecific-pathogen-free (5-7 weeks old), female balb/c mice were purchased from Jackson Labs (Bar Harbor, Me.). A biolistic gene gun (Rumsey-Loomis, Ithaca, N.Y.) was used to deliver plasmid DNA into the skin of mouse ears (Williams et al., 1991; Johnston and Tang 1993). Briefly, DNA was precipitated onto gold micro-projectiles (3±1 μm diameter, Metz Metallurgical Corp., South Plainfield, N.J.) at 4 μg DNA/mg gold. Each mouse received four shots of gold-DNA and each shots contains 1 μg reporter (P4U-AAT) and 50 ng effector (GS-1158) plasmid DNA. The drug (RU486, Sigma) was given intraperitoneally on days 1, 3, 5, and also on day 14, 16, in a dose of 500 μg/kg/day in 100 μl sesame oil, after DNA injection. […] The blood samples of the mice was collected from the tail vein at the time point as indicated. The anti-hAAT antibodies in the serum was measured using enzyme-linked immuno enzyme-linked immunosorbent assay (ELISA, Tang et al. 1992). Briefly, ninety six-well plats were coated with 1 μg hAAT per well in 50 μl phosphate buffered saline (PBS) (for overnight at 4° C. and 100 μl blocking buffer (3% bovine serum albumin (3SA) in PBS with 0.05% tween 20) was added and incubated for 2 hrs at room temperature. After 3 times washing with PBS plus 0.05% tween 20, the serum samples (diluted 1:200 in blocking buffer) were added into the well and incubated overnight at 4° C., then further incubated with horseradish peroxidase-conjugated goat anti-mouse immunoglobulin G and M (Jackson ImmunResearch, West Grove, Pa.) for 1 h at room temperature. The plate was washed and developed with TMB buffer solution (Calbiochem). The optical density was read at 450 nm and concentration of the antibodies was determined according to the standard curve.\nThe mice were given RU486 intraperitoneally in week 7 (Day 50, 52, 54) after the DNA injection in the drug and the Van Gogh (removed the site of the DNA inoculation, ear) groups. The ear cut was performed before administering the drug. The value shown is the mean with standard deviation for experiments on three mice.", "data": [{"smiles": "CC#C[C@]1(O)CC[C@H]2[C@@H]3CCC4=CC(=O)CCC4=C3[C@@H](c3ccc(N(C)C)cc3)C[C@@]21C", "note": "[RU486, mifepristone]", "values": [{"measurement": "anti-hAAT antibody levels, time of peak", "setting": "FIG. 3, 4 shots of 1 μg P4U-AAT + 50 ng GS-1158, RU486 500 μg/kg/day ip days 1, 3, 5, 14, 16", "value": "reached peak levels at the third week"}, {"measurement": "anti-hAAT immune response, inducibility by ligand", "setting": "FIG. 4, RU486 on week 3 (day 21, 23, 25) after DNA, 1 μg reporter and 50 ng effector per shot", "value": "inducible by simply giving the ligand three weeks after the primary injection of the DNA"}, {"measurement": "anti-hAAT immune response, inducibility by ligand", "setting": "FIG. 6, RU486 ip in week 7 (Day 50, 52, 54) after DNA injection", "value": "inducible 7 weeks after the DNA injection"}, {"measurement": "anti-hAAT immune response after removal of the DNA inoculation site (Van Gogh group)", "setting": "FIG. 6, ear cut before RU486 in week 7", "value": "the original vaccine site was not required for induction"}]}]}
